Converted amounts (≈) assume the structure as drawn.
Conditions: for aqueous solubility: pH 6.8

| SMILES | intrinsic clearance, human liver microsomes [mL/min/kg] | intrinsic clearance, rat liver microsomes [mL/min/kg] | aqueous solubility [µg/mL] | MDR1-MDCK efflux ratio | fraction unbound, human plasma | fraction unbound, rat plasma |
| --- | --- | --- | --- | --- | --- | --- |
| Cc1nnc(NC(=O)c2nn(-c3ccc(F)cc3)c3c2CCCC3)s1 | 42 | 227 | 2.9 (≈ 8.11 µM) | – | – | – |
| CSCCc1nc(-c2cc(C)nc3cc(F)ccc23)n(CCO)n1 | 16.9 | 147 | 24 (≈ 69.4 µM) | 21.8 | – | – |
| CCOc1cc(CN2CCc3c(N)nc(N4CCCC4)nc3C2)ccc1OC | 26.6 | 280 | – | 16.6 | – | – |
| Cc1csc2nc3n(c(=O)c12)CCNCC3 | 7.83 | 228 | – | 0.686 | – | – |
| COc1cc2c(cc1OC)-c1cc3ccc(OC)c(OC)c3c[n+]1CC2 | ≤ 4.74 | 23.4 | 54.1 | 22.5 | – | – |
| CC(C)(C)c1nc(O)c2nnn(C3CCNCC3)c2n1 | ≤ 4.74 | ≤ 10.7 | – | – | – | – |
| O=C(Cc1ccccc1F)N1CCN(c2nccn3nc4c(c23)CCCC4)CC1 | 132 | 784 | 56.1 (≈ 143 µM) | 0.961 | – | – |
| CO[C@H]1[C@H](C2(C)O[C@@H]2CC=C(C)C)[C@]2(CC[C@H]1OC(=O)/C=C/c1ccc(OCCN(C)C)cc1)CO2 (some centres undefined) | 210 | 795 | – | – | – | – |
| COCCCNc1ncc(-c2ccsc2)c(-c2nc(C)c(C)s2)n1 | 23.6 | 98.1 | – | – | – | – |
| CNC(=O)[C@H]1O[C@@H](n2cnc3c(NCc4cccc(I)c4)ncnc32)[C@H](O)[C@@H]1O | 195 | 3690 | – | – | – | – |
| O=C(Nc1nnc(SCc2ccc(F)cc2)s1)C1CCC1 | 52 | 1650 | – | 0.689 | – | – |
| O=C1c2cccc3cccc(c23)C(=O)N1CCN1CCOCC1 | 12.1 | 424 | 36.9 (≈ 119 µM) | 0.595 | – | – |
| CCN1CCc2ncnc(N3CCNc4ccccc4C3)c2C1 | ≤ 4.74 | 105 | 52.1 (≈ 168 µM) | 1.78 | – | – |
| Cc1ccc(-c2csc(CC(N)=O)n2)cc1C | – | – | 35.9 (≈ 146 µM) | 0.752 | – | – |
| Cc1c(C(=O)Nc2ccc(CO)cc2)nnn1Cc1ccc(Cl)c(Cl)c1 | 5.12 | 50.8 | – | 0.564 | – | – |
| Cn1cc(NC(=O)c2cnn3cccnc23)c(C2CCCCC2)n1 | 37.7 | 188 | – | 1.23 | – | – |
| COc1ccc(F)c(CN2CCC(Cc3noc(C)n3)CC2)c1 | 20.2 | 263 | 69.4 (≈ 217 µM) | 0.656 | – | – |
| COc1ccccc1-c1csc(-n2ncc(C#N)c2N)n1 | – | – | 0.13 (≈ 0.437 µM) | – | – | – |
| COc1ccccc1C(=O)Nc1cccc(-c2ccnc(C)n2)c1 | 60.3 | 167 | 46.4 (≈ 145 µM) | – | – | – |
| CCNc1cc2c(nn1)CCN(C(=O)Cn1ccc3ccccc31)C2 | ≤ 4.74 | 93.1 | – | – | – | – |
| CN(CC(=O)N(C)C)Cc1cc(C#N)ccc1F | ≤ 4.74 | 38.1 | 35.4 (≈ 142 µM) | 0.713 | – | – |

| SMILES | intrinsic clearance, human liver microsomes [mL/min/kg] | intrinsic clearance, rat liver microsomes [mL/min/kg] | aqueous solubility [µg/mL] | MDR1-MDCK efflux ratio | fraction unbound, human plasma | fraction unbound, rat plasma |
| --- | --- | --- | --- | --- | --- | --- |
| c1cn2cc(-c3ccc4cn[nH]c4c3)nc(Nc3ccc(N4CCOCC4)cc3)c2n1 | – | – | 0.1 (≈ 0.243 µM) | – | – | – |
| CCCCCCCCc1ccc2c(c1)CC[C@@H](C(N)(CO)CO)C2 | – | – | 0.81 (≈ 2.43 µM) | – | – | – |
| O=C(Cc1ccc2ccccc2c1)NCCc1nc2ccccc2[nH]1 | 184 | 875 | 29.1 (≈ 88.5 µM) | 15.4 | – | – |
| N#Cc1cc(Oc2ccc3c(c2)CCC3)ncn1 | 66.7 | 283 | – | 0.408 | – | – |
| CC(C)N(C[C@@H]1O[C@@H](n2cnc3c(N)ncnc32)[C@H](O)[C@H]1O)[C@H]1C[C@@H](CCc2nc3cc(C(C)(C)C)ccc3[nH]2)C1 | 146 | 835 | – | 3.45 | – | – |
| Cc1ccc(NC(=O)c2nn(-c3ccccc3)nc2C)cc1 | – | – | 0.29 (≈ 0.992 µM) | – | – | – |
| COc1nc(C#N)c(N2CCOCC2)o1 | – | – | 44.4 (≈ 212 µM) | – | – | – |
| CCc1noc(CN2CCCN(C(C)=O)c3ccccc32)n1 | 51 | 855 | 55.4 (≈ 185 µM) | 1.25 | – | – |
| c1ccc2nc(NCCn3ccnc3)cnc2c1 | 8.75 | 441 | – | 3.5 | – | – |
| COc1ccc(OCC(=O)N2CCN(C)CC2)cc1 | ≤ 4.74 | 133 | 52.5 (≈ 199 µM) | 0.763 | – | – |
| O=C(c1n[nH]c2c1COCC2)N1CCC2(C=Cc3ccccc32)CC1 | 4.85 | 870 | – | 1.5 | – | – |
| Cc1ccc(C#N)c(NC(=O)CCc2ccccc2)n1 | 11.1 | 240 | – | – | – | – |
| Cc1ccc(C)n1-c1ccc(CNS(C)(=O)=O)cc1 | – | – | 24.2 (≈ 86.9 µM) | – | – | – |
| CS(=O)(=O)N(CC(=O)Nc1ccccc1C(=O)NCc1ccco1)c1ccc(F)cc1 | 131 | 1110 | 35.1 (≈ 78.9 µM) | 9.61 | – | – |
| C=CC(=O)Nc1cccc(Oc2nc(Nc3ccc(N4CCN(C)CC4)cc3)nc3ccsc23)c1 | 9.79 | 210 | – | 85.5 | 0.00892 | 0.00491 |
| CCOC(=O)c1ccc(N2CCSCC2)nc1 | 411 | 2980 | – | 0.309 | – | – |
| Cc1cc(N(C)CC(C)(C)O)ncc1Br | 36.1 | 970 | – | – | – | – |
| O=C(Nc1ccc2[nH]ncc2c1)[C@H]1CCCNC1 | 14.5 | 343 | – | 0.38 | – | – |
| NCCCc1nc(-c2ccncc2)cs1 | 29.3 | 239 | – | – | – | – |
| Cc1cc2occ(CC(=O)NC3CCN(C)CC3)c2cc1C(C)C | 13.9 | 407 | 34.4 (≈ 105 µM) | 6.32 | – | – |
| N#Cc1c(N)nc(-c2ccccc2)nc1C(F)(F)F | – | – | 0.19 (≈ 0.719 µM) | – | – | – |

| SMILES | intrinsic clearance, human liver microsomes [mL/min/kg] | intrinsic clearance, rat liver microsomes [mL/min/kg] | aqueous solubility [µg/mL] | MDR1-MDCK efflux ratio | fraction unbound, human plasma | fraction unbound, rat plasma |
| --- | --- | --- | --- | --- | --- | --- |
| O=C(CCc1nnc(-c2ccsc2)o1)N1CCCc2cc(F)c(F)cc21 | 108 | 1980 | 2.08 (≈ 5.54 µM) | 0.866 | – | – |
| Clc1ccc2c(NCCN3CCOCC3)ncnc2c1 | 11.7 | 213 | – | 1.37 | – | – |
| C[C@]1(O)CN(C(=O)Cn2cnc3ccccc32)CC[C@@H]1Oc1ccccc1 | 5.54 | 181 | – | 47.2 | – | – |
| CCOC(=O)c1ccc(OCC(=O)c2c[nH]c3ccccc23)cc1 | – | – | 0.69 (≈ 2.13 µM) | 0.456 | – | – |
| COc1ccc(CCC(=O)N2CCN(C(=O)c3cc4n(n3)CCCC4)CC2)cc1 | 16.3 | 867 | 83.4 (≈ 210 µM) | 5.94 | – | – |
| O=c1c2cccnc2ncn1[C@H]1CCCc2ccccc21 | ≤ 4.74 | 119 | – | 0.837 | – | – |
| CC(C)Cc1sc(N)nc1-c1ccc(P(=O)(O)O)o1 | ≤ 4.74 | ≤ 10.7 | 69.3 (≈ 229 µM) | 0.425 | – | – |
| Cc1nc(CNC(=O)c2ccc(F)c(C)c2)no1 | ≤ 4.74 | ≤ 10.7 | – | – | – | – |
| N#Cc1ccc(Cn2cncn2)c(F)c1 | ≤ 4.74 | ≤ 10.7 | 26.5 (≈ 131 µM) | 0.697 | – | – |
| CCOc1ccccc1N/C=C1\C(=O)Oc2ccccc2C1=O | – | – | 0.66 (≈ 2.13 µM) | – | – | – |
| COc1cccc(CNc2ncc(-c3ccccc3)n2C)c1 | 938 | 2210 | 23.5 (≈ 80 µM) | 0.539 | – | – |
| C1CN(c2nc3c(c(N4CCSCC4)n2)SCC3)CCS1 | 126 | 1530 | – | 0.383 | – | – |
| O=C(NCc1ccc(O)cc1)Nc1ccncc1F | ≤ 4.74 | ≤ 10.7 | 37.8 (≈ 145 µM) | – | – | – |
| Cc1ccccc1CC(=O)N1CCN(C(=O)c2ccccc2)CC1 | 6.12 | 211 | 44.3 (≈ 137 µM) | 2.06 | – | – |
| NC(=O)c1cnc(N2CCc3[nH]nc(C(F)(F)F)c3C2)c(Cl)c1 | ≤ 4.74 | – | – | 7.33 | 0.0968 | – |
| O=S(=O)(Cc1csc(C2CCCC2)n1)C1CCCC1 | 92.7 | 2190 | 34.9 (≈ 116 µM) | 0.538 | – | – |
| O=C(NC1CC1)c1cccc2cccnc12 | 5.23 | 31.3 | 33.8 (≈ 159 µM) | 0.708 | – | – |
| Cc1cc(NC(=O)c2ccc(NC3CC3)nc2)[nH]n1 | 6.42 | 15.5 | – | – | – | – |
| Cc1ccccc1N(CC(=O)O)S(C)(=O)=O | – | – | 44.7 (≈ 184 µM) | – | – | – |
| C=CC(=O)N1CCC[C@@H](n2nc(-c3cccc(C(=O)Nc4ccc(C(C)C)c(C)c4)c3)c3c(N)ncnc32)C1 | – | – | 0.17 (≈ 0.325 µM) | 34.9 | – | – |
| N#Cc1c(O)nc(SCc2cccc(F)c2F)nc1C1CC1 | – | – | 2.1 (≈ 6.58 µM) | 0.817 | – | – |

— the Biogen ADME set (Fang et al. 2023)
